Test results: patent US5658938A, “Substituted 1H-imidazoles” (U C B S.A., priority 1994, dated 1997)
Where a name gives a salt, the structure may show the parent alone. Read-outs that look alike come from different tables or passages of the source.

Tests used:
[1] = system: coronary occlusion in the rat; test: Anti-ischemic and anti-hypertensive activity: coronary occlusion in the anesthetized rat (elevation of the T wave of the electrocardiogram, arterial pressure); type: in vivo, male albino rat of the Sprague-Dawley strain; details: for change in vivo at 3 µmol/kg / change in vivo at 1 µmol/kg: Rattus norvegicus, iv
Excerpt: The cardiac anti-ischemic activity of compounds manifests itself by their capacity to oppose the elevation of the T wave of the electrocardiogram, induced by a coronary occlusion in the rat. Continuous monitoring of the arterial pressure also enables to reveal the anti-hypertensive effects. The animal used for the test is a male albino rat of the Sprague-Dawley strain, weighing 220 to 280 g. On the day of the experiment, the animal is anesthetized by intraperitoneal administration of pentobarbital (60 mg/kg), then placed under endotracheal intubation. A ligature system is fitted around the descending left anterior coronary artery according to the procedure of Johnston et el. (Can. J. Physiol. Pharmacol., 61 (1983), 1340-1353). After closing the thorax, three electrodes are arranged on the body of the animal ("V4" thoracic derivation), in order to continuously record the shape of the electrocardiogram signal (in particular the T wave). Catheters are introduced into the right carotid artery and the right jugular vein to measure the arterial pressure and to administer intravenously the compound tested or the vehicle solution. Four 45 second coronary occlusions are performed, separated by episodes of reperfusion of 30, 35 and 30 minutes respectively. The compound to be studied or the vehicle are administered intravenously in bolus, 30 minutes before occlusion 3. The T electrocardiographic signal and the arterial pressure are continuously measured during the entire experiment.
The effects of the compounds according to the invention are quantified by comparing the amplitude of the elevation of the T wave at occlusions 3 and 4 (that is 30 minutes and 60 minutes after administration) with its value at occlusion 2 (that is before administration).
the second column indicates the dose of compound administered, expressed in mole/kg;
the third and the fourth columns indicate the anti-ischemic effect caused by administering the compound tested. The anti-ischemic effect represents the reduction in the elevation of the T wave caused by coronary occlusions 3 and 4, expressed in % with respect to occlusion 2, before administration of the compound (ΔT3 and ΔT4 respectively);
the fifth and sixth columns indicate the anti-hypertensive effect caused by administration of the compound tested. The anti-hypertensive effect is expressed as the maximum lowering of arterial pressure, measured a) between 5 and 30 minutes, and b) between 30 and 60 minutes after intravenous injection of the compound tested (ΔPa and ΔPb respectively). This lowering is expressed in % with respect to the value measured before injection.

[2] = system: presynaptic α2 -adrenergic receptors; test: Inhibition of the contraction of the electrically stimulated guinea pig ileum (presynaptic α2-agonist activity); details: guinea pig ileum longitudinal muscle strips, electrical stimulation
Excerpt: Longitudinal muscle strips attached to an isometric strain gauge are suspended in Tyrode's solution and are stretched under a tension of 1 g (G. M. Drew, Brit. J. Pharmacol. 64, (1978), 293-300; M. Andrejak et al., Naunyn-Schmiedeberg's Arch. Pharmacol. 314, (1980), 83-87).
Electrical stimulation of the parasympathetic nerves associated with the ileum fragments causes a contraction of the muscle. This contraction is reduced in the presence of a presynaptic α2 -agonist and the magnitude by which the contraction is reduced depends on the concentration of the agonist used. This effect is antagonised by the simultaneous presence of an α2 -antagonist such as alpha-yohimbine.
The IC30 concentration (in mole/l) that reduces by 30% the intensity of the contraction of the muscle is determined.

male NMRI mice = test: Toxicity, Irwin's test; type: in vivo; details: intraperitoneal
Description: The toxicity of the compounds of the invention has been determined in male NMRI mice by means of Irwin's test (S. Irwin, Psychopharmacologia (Berl.), 13, (1968), 222-257).
Progressive doses of the product studied are administered intraperitoneally to groups of three mice until a lethal dose is reached (dose causing the death of two out of three animals in 48 hours). It follows from this Table that the compounds of the invention are not very toxic.

[3] = biological target: T1, postsynaptic α1 -adrenergic receptor (Rattus norvegicus, UniProt P23944); test: Postsynaptic α1-antagonist activity: inhibition of norepinephrine-induced contraction of the isolated aorta of the rat; details: read-out: ED30 (concentration which causes 30% inhibition of the contraction induced by norepinephrine)
T1 construct: isolated aorta of the rat; from tissue; host or cells: rat isolated aorta
T1 sequence (P23944 1-561): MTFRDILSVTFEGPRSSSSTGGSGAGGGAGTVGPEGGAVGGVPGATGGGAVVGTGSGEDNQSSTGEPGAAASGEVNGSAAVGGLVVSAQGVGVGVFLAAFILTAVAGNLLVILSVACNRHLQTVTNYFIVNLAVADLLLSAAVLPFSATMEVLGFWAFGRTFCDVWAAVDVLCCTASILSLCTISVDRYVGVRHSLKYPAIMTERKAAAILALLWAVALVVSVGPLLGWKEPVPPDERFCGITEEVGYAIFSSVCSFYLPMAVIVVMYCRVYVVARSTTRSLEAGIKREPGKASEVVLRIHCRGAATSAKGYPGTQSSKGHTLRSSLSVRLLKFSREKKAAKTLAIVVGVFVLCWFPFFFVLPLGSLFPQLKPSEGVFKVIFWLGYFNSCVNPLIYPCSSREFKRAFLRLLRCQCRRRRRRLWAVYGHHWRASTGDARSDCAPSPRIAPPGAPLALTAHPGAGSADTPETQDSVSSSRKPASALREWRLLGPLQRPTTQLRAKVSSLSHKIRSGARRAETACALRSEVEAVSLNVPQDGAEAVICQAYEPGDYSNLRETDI
Description: A non selective α-agonist substance such as norepinephrine induces a sustained contraction of the isolated aorta of the rat (J. M. Van Rossum Arch. Int. Pharmacodyn. 143, (1963), 299-330). This contraction can be inhibited by α1 -adrenergic blocking substances such as prazosin. In this test, a control contraction is carried out with norepinephrine at 3.2×10^-8 mole/l. After washing and stabilizing the preparation, the compound to be tested is added to the bath. Norepinephrine is added 5 minutes after the compound tested, and inhibition of the contraction induced by norepinephrine is measured. Next, inhibition of the contraction induced by norepinephrine is evaluated a second and third time in the presence of increasing concentrations of the compound tested.

[4] = 0.5 h, read-out: ΔPa (maximum lowering of arterial pressure)
[5] = 0.5 h, read-out: ΔT3 (anti-ischemic effect: change in elevation of the T wave, occlusion 3 vs occlusion 2)
[6] = 1 h, read-out: ΔPb (maximum lowering of arterial pressure)
[7] = 1 h, read-out: ΔT4 (anti-ischemic effect: change in elevation of the T wave, occlusion 4 vs occlusion 2)

## Cl.Oc1ccc2c(c1)CCC2c1c[nH]cn1 (stereo not drawn) [Compound H, 2,3-dihydro-1-(1H-imidazol-4-yl)-1H-indene-5-ol hydrochloride]
[1]; [4]
  change in vivo at 3 µmol/kg: -23%
[1]; [5]
  change in vivo at 3 µmol/kg: -48%
[1]; [6]
  change in vivo at 3 µmol/kg: -19%
[1]; [7]
  change in vivo at 3 µmol/kg: -55%
[2]
  IC30 (concentration that reduces by 30% the intensity of the contraction of the muscle): 36 nM
Male NMRI mice
  Lethal dose (dose causing the death of two out of three animals in 48 hours): 236.7 mg/kg
[3]
  IC30: 210 nM

## COc1cccc2c1C(c1c[nH]cn1)CCC2 (stereo not drawn) [Compound I, 4-(1,2,3,4-tetrahydro-8-methoxy-1-naphthalenyl)-1H-imidazole]
[1]; [4]
  change in vivo at 1 µmol/kg: -26%
[1]; [5]
  change in vivo at 1 µmol/kg: -37%
[1]; [6]
  change in vivo at 1 µmol/kg: -16%
[1]; [7]
  change in vivo at 1 µmol/kg: -57%
[2]
  IC30 (concentration that reduces by 30% the intensity of the contraction of the muscle): 8000 nM
Male NMRI mice
  Lethal dose (dose causing the death of two out of three animals in 48 hours): 228.3 mg/kg
[3]
  IC30: 1800 nM

## Cc1cc(C(C)(C)C)c(O)c(C)c1CC1=NCCN1 [Oxymetazoline, 3-[(4,5-dihydro-1H-imidazol-2-yl)methyl]-6-(1,1-dimethylethyl)-2,4-dimethylphenol, reference compound]
[1]; 0.5 h, i.v. bolus, 3.2 × 10^-8 mole/kg, 30 minutes after administration, read-out: ΔT3 (anti-ischemic effect: change in elevation of the T wave, occlusion 3 vs occlusion 2)
  change in vivo at 3 µmol/kg: -45%
[1]; 1 h, i.v. bolus, 3.2 × 10^-8 mole/kg, 60 minutes after administration, read-out: ΔT4 (anti-ischemic effect: change in elevation of the T wave, occlusion 4 vs occlusion 2)
  change in vivo at 3 µmol/kg: -38%
[1]; 1 h, i.v. bolus, 3.2 × 10^-8 mole/kg, between 30 and 60 minutes after injection, read-out: ΔPb (maximum lowering of arterial pressure)
  change in vivo at 3 µmol/kg: 0%
[2]
  IC30 (concentration that reduces by 30% the intensity of the contraction of the muscle): 12 nM

## COc1ccc2c(c1)CCCC2c1c[nH]cn1 (single isomer, unassigned; (+)) [Compound A, (+)-4-(1,2,3,4-tetrahydro-6-methoxy-1-naphthalenyl)-1H-imidazole]
[1]; [4]
  change in vivo at 3 µmol/kg: -32%
[1]; [5]
  change in vivo at 3 µmol/kg: -80%
[1]; [6]
  change in vivo at 3 µmol/kg: -28%
[1]; [7]
  change in vivo at 3 µmol/kg: -33%
[2]
  IC30 (concentration that reduces by 30% the intensity of the contraction of the muscle): 30 nM
Male NMRI mice
  Lethal dose (dose causing the death of two out of three animals in 48 hours): 228.3 mg/kg
[3]
  IC30: 21 nM

## Cl.Oc1cc2c(cc1O)C(c1c[nH]cn1)CCC2 (stereo not drawn) [Compound K, 5,6,7,8-tetrahydro-5-(1H-imidazol-4-yl)-2,3-naphthalenediol hydrochloride]
[1]; [4]
  change in vivo at 3 µmol/kg: -29%
[1]; [5]
  change in vivo at 3 µmol/kg: -49%
[1]; [6]
  change in vivo at 3 µmol/kg: -41%
[1]; [7]
  change in vivo at 3 µmol/kg: -47%
[2]
  IC30 (concentration that reduces by 30% the intensity of the contraction of the muscle): 16 nM
Male NMRI mice
  Lethal dose (dose causing the death of two out of three animals in 48 hours): > 85.4 mg/kg

## Cc1ccc2c(c1)CCCC2c1c[nH]cn1 (stereo not drawn) [Compound G, 4-(1,2,3,4-tetrahydro-6-methyl-1-naphthalenyl)-1H-imidazole]
[1]; [4]
  change in vivo at 3 µmol/kg: -22%
[1]; [5]
  change in vivo at 3 µmol/kg: -24%
[1]; [6]
  change in vivo at 3 µmol/kg: -14%
[1]; [7]
  change in vivo at 3 µmol/kg: -16%
[2]
  IC30 (concentration that reduces by 30% the intensity of the contraction of the muscle): 30 nM
Male NMRI mice
  Lethal dose (dose causing the death of two out of three animals in 48 hours): 118.9 mg/kg
[3]
  IC30: 72 nM

## COc1cc2nc(N3CCN(C(=O)c4ccco4)CC3)nc(N)c2cc1OC [Prazosin, 1-(4-amino-6,7-dimethoxy-2-quinazolinyl)-4-(2-furanylcarbonyl)piperazine, reference compound]
[1]; i.v., Table I
  anti-ischemic effect, in words: absence of a significant anti-ischemic effect
[3]
  IC30: 0.23 nM

## COc1cccc2c1CCCC2c1c[nH]cn1 (stereo not drawn) [Compound E, 4-(1,2,3,4-tetrahydro-5-methoxy-1-naphthalenyl)-1H-imidazole]
[1]; [4]
  change in vivo at 1 µmol/kg: -45%
[1]; [5]
  change in vivo at 1 µmol/kg: -31%
[1]; [6]
  change in vivo at 1 µmol/kg: -20%
[1]; [7]
  change in vivo at 1 µmol/kg: -13%
[2]
  IC30 (concentration that reduces by 30% the intensity of the contraction of the muscle): 1.7 nM
Male NMRI mice
  Lethal dose (dose causing the death of two out of three animals in 48 hours): 127.8 mg/kg
[3]
  IC30: 460 nM

## Oc1ccc2c(c1)CCCC2c1c[nH]cn1 (single isomer, unassigned; (+)) [Compound D, (+)-5,6,7,8-tetrahydro-5-(1H-imidazol-4-yl)-2-naphthalenol]
[1]; [4]
  change in vivo at 1 µmol/kg: -30%
[1]; [5]
  change in vivo at 1 µmol/kg: -50%
[1]; [6]
  change in vivo at 1 µmol/kg: -17%
[1]; [7]
  change in vivo at 1 µmol/kg: -31%
[2]
  IC30 (concentration that reduces by 30% the intensity of the contraction of the muscle): 1.8 nM
Male NMRI mice
  Lethal dose (dose causing the death of two out of three animals in 48 hours): > 68.6 mg/kg
[3]
  IC30: 420 nM

## CC(C)NCC(O)COc1cccc2ccccc12 (stereo not drawn) [Propranolol, 1-[(1-methylethyl)amino]-3-(1-naphthalenyloxy)-2-propanol, reference compound]
[1]; 0.5 h, i.v. bolus, 3.2 × 10^-6 mole/kg, 30 minutes after administration, read-out: ΔT3 (anti-ischemic effect: change in elevation of the T wave, occlusion 3 vs occlusion 2)
  change in vivo at 3 µmol/kg: -21%
[1]; 0.5 h, i.v. bolus, 3.2 × 10^-6 mole/kg, between 5 and 30 minutes after injection, read-out: ΔPa (maximum lowering of arterial pressure)
  change in vivo at 3 µmol/kg: 7%
[1]; 1 h, i.v. bolus, 3.2 × 10^-6 mole/kg, 60 minutes after administration, read-out: ΔT4 (anti-ischemic effect: change in elevation of the T wave, occlusion 4 vs occlusion 2)
  change in vivo at 3 µmol/kg: -30%
[1]; 1 h, i.v. bolus, 3.2 × 10^-6 mole/kg, between 30 and 60 minutes after injection, read-out: ΔPb (maximum lowering of arterial pressure)
  change in vivo at 3 µmol/kg: 5%

## NC(=O)c1cccc(Cc2c[nH]cn2)c1O [Mivazerol, 2-hydroxy-3-[(1H-imidazol-4-yl)methyl]benzamide hydrochloride, reference compound]
[1]; [4]
  change in vivo at 3 µmol/kg: -1%
[1]; [5]
  change in vivo at 3 µmol/kg: -34%
[1]; [6]
  change in vivo at 3 µmol/kg: -6%
[1]; [7]
  change in vivo at 3 µmol/kg: -22%

## COc1ccc2c(c1)CCC2c1c[nH]cn1 (stereo not drawn) [Compound C, 4-(2,3-dihydro-5-methoxy-1H-inden-1-yl)-1H-imidazole]
[1]; [4]
  change in vivo at 3 µmol/kg: -44%
[1]; [5]
  change in vivo at 3 µmol/kg: -52%
[1]; [6]
  change in vivo at 3 µmol/kg: -43%
[1]; [7]
  change in vivo at 3 µmol/kg: -66%
[2]
  IC30 (concentration that reduces by 30% the intensity of the contraction of the muscle): 32 nM
Male NMRI mice
  Lethal dose (dose causing the death of two out of three animals in 48 hours): 214.3 mg/kg
[3]
  IC30: 100 nM
